Key:
[1] = system: ERK phosphorylation (Thr202/Tyr204) in KRAS G12D mutant-positive pancreatic cancer line AsPC-1; experiment: ERK phosphorylation inhibitory activity in AsPC-1 (cell ELISA); assay type: cell-based; conditions: Homo sapiens, ASPC1, 2 h, read-out: IC50, ERK phosphorylation inhibition
Experimental: The ERK phosphorylation inhibitory activities of subject compounds were evaluated by measuring phosphorylation of the 202th threonine (Thr202) and the 204th tyrosine (Tyr204) of ERK located downstream of the KRAS signal by cell ELISA.
AsPC-1 cells (ATCC, CRL-1682) were seeded at 36 μL/well on a 384-well plate (from Greiner bio-one) to give 2.0×10^4 cells per well. As for the cell culture conditions, RPMI-1640 medium (from Sigma-Aldrich) containing 10% fetal bovine serum (from GE Life Sciences) was used in the presence of 5% CO2 at 37° C.
The next day, the subject compounds (6 points having final concentrations in the range of 10 μM to 0.3 nM), trametinib (MEK inhibitor) of a final concentration of 1 μM as a positive control and DMSO, which was the solvent for the subject compounds, as a negative control were diluted 100-fold with a fresh medium and were each added at 4 μL per well, followed by culturing for 2 hours. After culturing, a 30% glyoxal solution (40% glyoxal [from Wako] was diluted with Phosphate Buffered Saline [PBS; from Wako) was quickly added at 30 μL per well, and the plate was allowed to stand for an hour at room temperature to thus immobilize the cells. Then, the plate was centrifuged (110× g, seven seconds, hereinafter centrifugation was performed under the same conditions unless otherwise specified) to remove the supernatant, and 0.1% Triton X-100 (from Amersham Biosciences)—containing PBS was added at 20 μL per well. After allowing the plate to stand for 10 minutes at room temperature, the supernatant was removed by centrifugation, and the same operation was further repeated. Next, 0.5% sodium dodecyl sulfate (SDS; from Invitrogen)-containing PBS was added at 20 μL per well. The plate was allowed to stand at room temperature for 30 minutes and was then centrifuged to remove the supernatant. Subsequently, a blocking solution (Intercept Blocking Buffer; from LI-COR Biosciences) was added at 20 μL per well, and the plate was allowed to stand for an hour at room temperature. The supernatant was removed by centrifugation, and an ERK (Thr202/Tyr204) phosphorylation antibody (Phospho-p44/42 MAPK (Erk 1/2) (Thr202/Tyr204) (D13.14.4E) XP Rabbit mAb; from Cell Signaling Technology) diluted 2,500-fold with the blocking solution was added at 10 μL per well as a primary antibody. The plate was allowed to stand at 4° C. overnight.
The next day, the plate was centrifuged to remove the supernatant, and 0.05% Tween-20-containing PBS (from Thermo Scientific; 20× PBS Tween-20 was diluted 20-fold with ion exchange water and used) was added at 20 μL per well. The supernatant was removed by centrifugation to thus wash each well. The washing was performed three times in total. After washing, an IRDye 800CW Goat anti-Rabbit IgG (from LI-COR Biosciences) diluted 1,000-fold with the blocking solution was added at 10 μL per well as a secondary antibody, and the plate was allowed to stand for an hour at room temperature. The plate was centrifuged to remove the supernatant, and each well was washed three times with 0.05% Tween-20-containing PBS in the same manner as after the primary antibody reaction. Centrifugation after the third washing was performed at 171×g for 17 seconds. After removing the supernatant, the plate was dried as it was with air at room temperature for three hours or more, and the 800-nm fluorescent signals were measured with Aerius (from LI-COR Biosciences).
With the signaling value at the time of addition of DMSO taken as 0% inhibition and with the signaling value at the time of addition of […] trametinib taken as 100% inhibition, the 50% inhibition values (IC50) were calculated by Sigmoid-Emax model nonlinear regression analysis.

[2] = system: KRAS G12D mutant-positive pancreatic cancer line AsPC-1; experiment: Non-anchorage-dependent cell growth inhibitory activity in AsPC-1 (spheroid 3D culture); assay type: cell-based; conditions: Homo sapiens, ASPC1, 144 h, read-out: IC50, non-anchorage-dependent cell growth inhibition
Experimental: The non-anchorage-dependent cell growth inhibitory activities of subject compounds were evaluated by spheroid 3D cell culture.
AsPC-1 cells were seeded at 36 μL/well on a low-cell-adhesive round bottom 384-well plate (Prime Surface: from Sumitomo Bakelite) to give 5×10^2 cells per well. The cell culture was performed under the same conditions as in the Test Example 2.
The next day, the subject compounds (6 points having final concentrations in the range of 10 μM to 3.0 nM) and DMSO, which was the solvent for the subject compounds, as a negative control were diluted 100-fold with a fresh medium and were each added at 4 μL per well. After culturing in the presence of 5% CO2 at 37° C. for six days, CellTiter Glo 2.0 (from Promega) was added at 20 μL per well. After stirring with a plate mixer (from FINEPCR) at normal temperature for an hour, the luminescent signals were measured with ARVO X3 (from PerkinElmer).
With the signaling value in treatment with DMSO taken as 0% inhibition and with the signaling value in the medium alone without cells taken as 100% inhibition, the 50% inhibition values (IC50) were calculated by Sigmoid-Emax model nonlinear regression analysis.

[3] = target: KRAS G12D/SOS/c-Raf complex (Homo sapiens (Human), UniProt P01116, G12D); experiment: KRAS G12D/SOS/c-Raf complex formation inhibitory activity (TR-FRET); assay type: biochemical; conditions: human recombinant proteins, 1 hour at room temperature, read-out: IC50, KRAS G12D/SOS/c-Raf complex formation inhibition
Experimental: Using human recombinant KRAS G12D, SOS and c-Raf proteins, the inhibitory activity of subject compounds on the complex formation of the proteins was examined by a time-resolved fluorescence resonance energy transfer (TR-FRET) method.
Biotinylated AviTag-KRAS G12D (amino acid region of 1-185, GDP) (2.5 μL; 400 nM) and subject compounds dissolved in an assay buffer (50 mM HEPES, 150 mM NaCl, 5 mM MgCl2, 0.05% Tween 20, pH 7.0) were added to a 384-well plate (from Corning) in a liquid volume of 2.5 μL at 40,000 nM to 40 nM. Son of Sevenless (SOS) (amino acid region of 564-1049, 2.5 μL; 1.3 μM) and c-Raf (amino acid region of 51-131) GST (2.5 μL; 130 nM) containing GTP (from Sigma-Aldrich; 2 μM) were added to the plate, and the plate was allowed to stand for 1 hour at room temperature. Then, a mixture liquid (10 μL) of LANCE Ulight-anti-GST (from PerkinElmer; 120 nM) and LANCE Eu-W1024 labeled Streptoavidin (from PerkinElmer; 100 ng/mL) was added, and the 620-nm and 665-nm fluorescence intensities were measured using EnVision 2104 (from PerkinElmer) under the conditions of an excitation wavelength of 337 nm. After standardizing the values with the fluorescence intensity at a reference wavelength of 620 nm, the 50% inhibitory concentrations (IC50) were calculated by Sigmoid-Emax model nonlinear regression analysis with the signaling value in treatment with the solvent taken as 0% inhibition and with the signaling value without the addition of GTP taken as 100% inhibition.

KRAS G12D/SOS/c-Raf complex, sequence (P01116 other isoform, or with tags, fused parts or gaps G12D): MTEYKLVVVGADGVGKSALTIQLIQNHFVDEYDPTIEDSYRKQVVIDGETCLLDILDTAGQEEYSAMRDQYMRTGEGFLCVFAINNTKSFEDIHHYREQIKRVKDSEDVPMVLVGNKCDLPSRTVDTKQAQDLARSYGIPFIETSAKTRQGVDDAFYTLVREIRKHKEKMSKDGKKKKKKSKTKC

| Structure (SMILES) | IC50 [1] [nM] | IC50 [2] [nM] | IC50 [3] [nM] |
| --- | --- | --- | --- |
| CCN1CCN(Cc2ccc(COc3c(-c4c(C)c(F)cc5[nH]ncc45)c(C4CC4)cc4c(N5C[C@@H]6C[C@H]5CN6)nc(OC5CCOCC5)nc34)cc2)C(=O)C1 [Example 4, 1-({4-[({6-cyclopropyl-4-[(1S,4S)-2,5-diazabicyclo[2.2.1]heptan-2-yl]-7-(6-fluoro-5-methyl-1H-indazol-4-yl)-2-[(oxan-4-yl)oxy]quinazolin-8-yl}oxy)methyl]phenyl}methyl)-4-ethylpiperazin-2-one] | 37 | 99 | 100 |
| Cc1c(F)cc2[nH]ncc2c1-c1c(C2CC2)cc2c(N3C[C@@H]4C[C@H]3CN4)nc(OC3CCOCC3)nc2c1OCc1ccc(CN2CCN(C3CCOCC3)CC2=O)cc1 [Example 5, 1-({4-[({6-cyclopropyl-4-[(1S,4S)-2,5-diazabicyclo[2.2.1]heptan-2-yl]-7-(6-fluoro-5-methyl-1H-indazol-4-yl)-2-[(oxan-4-yl)oxy]quinazolin-8-yl}oxy)methyl]phenyl}methyl)-4-(oxan-4-yl)piperazin-2-one] | 32 | 83 | 107 |
| Cc1c(F)cc2[nH]ncc2c1-c1c(C2CC2)cc2c(N3C[C@@H]4C[C@H]3CN4)nc(OC3CCOCC3)nc2c1OCc1ccc(CN2CCN(C(C)C)CC2=O)cc1 [Example 6, 1-({4-[({6-cyclopropyl-4-[(1S,4S)-2,5-diazabicyclo[2.2.1]heptan-2-yl]-7-(6-fluoro-5-methyl-1H-indazol-4-yl)-2-[(oxan-4-yl)oxy]quinazolin-8-yl}oxy)methyl]phenyl}methyl)-4-(propan-2-yl)piperazin-2-one] | 36 | 92 | 91 |
| Cc1c(F)cc2[nH]ncc2c1-c1c(C2CC2)cc2c(N3C[C@@H]4C[C@H]3CN4)nc(O[C@@H]3CCCc4cnccc43)nc2c1OCc1ccc(Cn2c(=O)n(C)c3ncccc32)cc1 [Example 8, 1-[(4-{[(6-cyclopropyl-4-[(1S,4S)-2,5-diazabicyclo[2.2.1]heptan-2-yl]-7-(6-fluoro-5-methyl-1H-indazol-4-yl)-2-{[(5R)-5,6,7,8-tetrahydroisoquinolin-5-yl]oxy}quinazolin-8-yl)oxy]methyl}phenyl)methyl]-3-methyl-1,3-dihydro-2H-imidazo[4,5-b]pyridin-2-one] | 30 | 73 | 40 |
| Cc1cc(C)n2cc(Cc3ccc(COc4c(-c5c(C)c(F)cc6[nH]ncc56)c(C5CC5)cc5c(N6C[C@@H]7C[C@H]6CN7)nc(OC6CCOCC6)nc45)cc3)nc2n1 [Example 9, 6-cyclopropyl-4-[(1S,4S)-2,5-diazabicyclo[2.2.1]heptan-2-yl]-8-({4-[(5,7-dimethylimidazo[1,2-a]pyrimidin-2-yl)methyl]phenyl}methoxy)-7-(6-fluoro-5-methyl-1H-indazol-4-yl)-2-[(oxan-4-yl)oxy]quinazoline] | 44 | 84 | 44 |
| Cc1c(F)cc2[nH]ncc2c1-c1c(C2CC2)cc2c(N3C[C@@H]4C[C@H]3CN4)nc(OCc3cccnc3C(C)C)nc2c1OCc1ccc(Cn2c(=O)n(C)c3ncccc32)cc1 [Example 10, 1-[(4-{[(6-cyclopropyl-4-[(1S,4S)-2,5-diazabicyclo[2.2.1]heptan-2-yl]-7-(6-fluoro-5-methyl-1H-indazol-4-yl)-2-{[2-(propan-2-yl)pyridin-3-yl]methoxy}quinazolin-8-yl)oxy]methyl}phenyl)methyl]-3-methyl-1,3-dihydro-2H-imidazo[4,5-b]pyridin-2-one] | 41 | 77 | 33 |
| Cc1c(F)cc2[nH]ncc2c1-c1c(C2CC2)cc2c(N3C[C@@H]4C[C@H]3CN4)nc(OC3CCOCC3)nc2c1OCc1ccc(Cn2nc(-c3cnccn3)nc2C)cc1 [Example 11, 6-cyclopropyl-4-[(1S,4S)-2,5-diazabicyclo[2.2.1]heptan-2-yl]-7-(6-fluoro-5-methyl-1H-indazol-4-yl)-8-[(4-{[5-methyl-3-(pyrazin-2-yl)-1H-1,2,4-triazol-1-yl]methyl}phenyl)methoxy]-2-[(oxan-4-yl)oxy]quinazoline] | 81 | 133 | 110 |
| Cc1c(F)cc2[nH]ncc2c1-c1c(C2CC2)cc2c(N3C[C@@H]4C[C@H]3CN4)nc(OC3CCOCC3)nc2c1OCc1ccc(Cn2nc3n(c2=O)CCOC3)cc1 [Example 12, 2-({4-[({6-cyclopropyl-4-[(1S,4S)-2,5-diazabicyclo[2.2.1]heptan-2-yl]-7-(6-fluoro-5-methyl-1H-indazol-4-yl)-2-[(oxan-4-yl)oxy]quinazolin-8-yl}oxy)methyl]phenyl}methyl)-2,5,6,8-tetrahydro-3H-[1,2,4]triazolo[3,4-c][1,4]oxazin-3-one] | 72 | 153 | 74 |
| Cc1c(F)cc2[nH]ncc2c1-c1c(C2CC2)cc2c(N3C[C@@H]4C[C@H]3CN4)nc(OC3CCOCC3)nc2c1OCc1ccc(Cc2nc3ncccn3n2)cc1 [Example 13, 6-cyclopropyl-4-[(1S,4S)-2,5-diazabicyclo[2.2.1]heptan-2-yl]-7-(6-fluoro-5-methyl-1H-indazol-4-yl)-2-[(oxan-4-yl)oxy]-8-({4-[([1,2,4]triazolo[1,5-a]pyrimidin-2-yl)methyl]phenyl}methoxy)quinazoline] | 78 | 130 | 77 |
